Like-named read-outs stand apart in the source and are kept apart here.

What is called IC50 is the midpoint of a concentration-inhibition curve. By inhibition is commonly meant the drop in the measured response relative to a control, in per cent. By EC50 is commonly meant the concentration that produces a half-maximal response. The low end stands for a more potent agent, the high end for a less potent agent.

The target of one experiment is T1, Cannabinoid CB1 Receptor (Homo sapiens, UniProt P21554).
T1 construct: expressed in transfected cells
The experiment in a line: Binding assay for CB1 agonists or inverse agonists (radioligand competition, membranes of transfected SK-N-MC cells). Background: Displacement assays read how much labelled ligand stays bound in the presence of the test substance.

A further experiment has as its target T2, Cannabinoid CB2 Receptor (Homo sapiens, UniProt P34972).
T2 construct: expressed in transfected cells
Briefly: Binding assay for CB2 agonists or inverse agonists (radioligand competition, membranes of transfected SK-N-MC cells). To be noted: for inhibition at 0.2 µM: read-out: Cannabinoid CB2 Receptor Binding percent inhibition.

In another experiment the target is CB1 receptor (human) (Homo sapiens, UniProt P21554). The experiment in a line: cell-based. To be noted: for CB1 Receptor Functional Activity (change in functional activity, CRE β-gal): one compound concentration, β-galactosidase activity relative to vehicle treated cells.
Chain of CB1 receptor (human) (P21554 whole entry): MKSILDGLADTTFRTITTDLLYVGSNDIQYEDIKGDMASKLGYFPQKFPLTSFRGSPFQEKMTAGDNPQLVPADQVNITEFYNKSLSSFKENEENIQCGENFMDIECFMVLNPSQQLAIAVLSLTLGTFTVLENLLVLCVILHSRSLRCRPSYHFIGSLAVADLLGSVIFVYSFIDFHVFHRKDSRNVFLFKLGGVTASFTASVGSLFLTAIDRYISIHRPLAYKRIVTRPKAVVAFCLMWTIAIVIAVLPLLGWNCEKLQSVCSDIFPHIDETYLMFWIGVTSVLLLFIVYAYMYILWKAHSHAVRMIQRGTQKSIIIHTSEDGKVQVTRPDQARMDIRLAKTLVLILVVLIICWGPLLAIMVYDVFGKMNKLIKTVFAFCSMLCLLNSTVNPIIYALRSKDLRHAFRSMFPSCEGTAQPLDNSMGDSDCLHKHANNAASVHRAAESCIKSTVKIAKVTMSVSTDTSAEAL

T2 sequence (P34972 whole entry): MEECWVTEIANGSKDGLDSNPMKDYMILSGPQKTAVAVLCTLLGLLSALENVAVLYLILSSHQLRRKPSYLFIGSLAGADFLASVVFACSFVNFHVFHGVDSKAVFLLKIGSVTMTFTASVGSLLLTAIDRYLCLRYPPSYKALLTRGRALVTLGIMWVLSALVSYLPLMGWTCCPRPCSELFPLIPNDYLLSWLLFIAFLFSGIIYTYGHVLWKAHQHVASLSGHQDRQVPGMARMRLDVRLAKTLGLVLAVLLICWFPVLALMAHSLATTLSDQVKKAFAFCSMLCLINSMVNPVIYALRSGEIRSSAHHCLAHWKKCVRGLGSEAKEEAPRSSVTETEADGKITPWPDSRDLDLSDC
T1 sequence (P21554 whole entry): as the sequence (P21554 whole entry) above

The molecule `CCNC(=O)N1C/C(=C\c2ccc(F)cc2)c2c(c(C(=O)NC(C)c3ccccn3)nn2-c2ccc(Cl)cc2Cl)C1` (stereo not drawn) [Cpd 24, (7E)-1-(2,4-dichloro-phenyl)-7-(4-fluoro-benzylidene)-1,4,6,7-tetrahydro-pyrazolo[4,3-c]pyridine-3,5-dicarboxylic acid 5-ethylamide 3-[(1-pyridin-2-yl-ethyl)-amide]] displayed an IC50 on Cannabinoid CB1 Receptor of 20 nM. Also, the inhibition at 0.2 µM at Cannabinoid CB2 Receptor worked out at 6%. Besides, the EC50 on CB1 receptor (human) is 20 nM.

Regarding `COc1ccc(/C=C2\CNCc3c(C(=O)NC(C)c4ccccn4)nn(-c4ccc(Cl)cc4Cl)c32)cc1` (stereo not drawn) [Cpd 49, (7E)-1-(2,4-dichloro-phenyl)-7-(4-methoxy-benzylidene)-4,5,6,7-tetrahydro-1H-pyrazolo[4,3-c]pyridine-3-carboxylic acid (1-pyridin-2-yl-ethyl)-amide], at Cannabinoid CB1 Receptor, the IC50 is 100 nM. In addition, the inhibition at 0.2 µM on Cannabinoid CB2 Receptor is 19%. Also, the EC50 at CB1 receptor (human) was 1 nM.

As for `C[C@@H](NC(=O)c1nn(-c2ccc(Cl)cc2)c2c1CN(S(=O)(=O)N(C)C)C/C2=C\c1ccc(F)cc1)c1ccccc1` [Cpd 70, (7E)-1-(4-chloro-phenyl)-5-dimethylsulfamoyl-7-(4-fluoro-benzylidene)-4,5,6,7-tetrahydro-1H-pyrazolo[4,3-c]pyridine-3-carboxylic acid [(1R)-1-phenyl-ethyl]-amide], the IC50 at Cannabinoid CB1 Receptor turned out to be 9 nM. Moreover, on Cannabinoid CB2 Receptor, the inhibition at 0.2 µM was 13%. In addition, at CB1 receptor (human), the EC50 came out at 1 nM.

For `CCNC(=O)N1CCc2c(c(C(=O)NC3C4(C)CCC(C4)C3(C)C)nn2-c2ccccc2)C1` (stereo not drawn) [Cpd 114, 1-phenyl-1,4,6,7-tetrahydro-pyrazolo[4,3-c]pyridine-3,5-dicarboxylic acid 5-ethylamide 3-[(1,3,3-trimethyl-bicyclo[2.2.1]hept-2-yl)-amide]], the inhibition at 0.2 µM is 51% at Cannabinoid CB1 Receptor (read-out: Cannabinoid CB1 Receptor Binding percent inhibition) and 34% at Cannabinoid CB2 Receptor. Moreover, on CB1 receptor (human), the “CB1 Receptor Functional Activity (change in functional activity, CRE β-gal)” value was found to be 51%.

Regarding `COC(=O)N1C/C(=C\c2ccc(OC)cc2)c2c(c(C(=O)NN3CCCCC3)nn2-c2ccc(Cl)cc2Cl)C1` [Cpd 55, (7E)-1-(2,4-dichloro-phenyl)-7-(4-methoxy-benzylidene)-3-(piperidin-1-ylcarbamoyl)-1,4,6,7-tetrahydro-pyrazolo[4,3-c]pyridine-5-carboxylic acid methyl ester], at Cannabinoid CB1 Receptor, the IC50 is 5 nM. For the same molecule, the inhibition at 0.2 µM on Cannabinoid CB2 Receptor worked out at 66%. The molecule also had an EC50 at CB1 receptor (human) of 2 nM.

Turning to `CC(=O)N1C/C(=C\c2ccc(F)cc2)c2c(c(C(=O)NC(C)c3ccccn3)nn2-c2ccc(Cl)cc2)C1` (stereo not drawn) [Cpd 80, (7E)-5-acetyl-1-(4-chloro-phenyl)-7-(4-fluoro-benzylidene)-4,5,6,7-tetrahydro-1H-pyrazolo[4,3-c]pyridine-3-carboxylic acid (1-pyridin-2-yl-ethyl)-amide], at Cannabinoid CB1 Receptor, the IC50 came to 100 nM. Moreover, the inhibition at 0.2 µM at Cannabinoid CB2 Receptor was found to be 0%. This molecule also had a 50% effective concentration (EC50) on CB1 receptor (human) of 9 nM.

With `CCNC(=O)N1C/C(=C\c2ccc(F)cc2)c2c(c(C(=O)NN3CCCCC3)nn2-c2ccc(Cl)cc2Cl)C1` [Cpd 34, (7E)-1-(2,4-dichloro-phenyl)-7-(4-fluoro-benzylidene)-1,4,6,7-tetrahydro-pyrazolo[4,3-c]pyridine-3,5-dicarboxylic acid 5-ethylamide 3-piperidin-1-ylamide], the IC50 at Cannabinoid CB1 Receptor was determined as 50 nM. The inhibition at 0.2 µM on Cannabinoid CB2 Receptor was 12%. The same molecule returned a concentration for a half-maximal effect (EC50) on CB1 receptor (human) of 9 nM.

In turn, `CCNC(=O)N1C/C(=C\c2ccc(OC)cc2)c2c(c(C(=O)N[C@H](C)c3ccccn3)nn2-c2ccc(Cl)cc2Cl)C1` [Cpd 98, (7E)-1-(2,4-dichloro-phenyl)-7-(4-methoxy-benzylidene)-1,4,6,7-tetrahydro-pyrazolo[4,3-c]pyridine-3,5-dicarboxylic acid 5-ethylamide 3-{[(1R)-1-pyridin-2-yl-ethyl]-amide}] came in with an IC50 at Cannabinoid CB1 Receptor of 8 nM. Moreover, the inhibition at 0.2 µM on Cannabinoid CB2 Receptor was determined as 17%. The same molecule had an EC50 at CB1 receptor (human) of 4 nM.

The molecule `COc1ccc(/C=C2\CNCc3c(C(=O)N[C@H](C)c4ccccn4)nn(-c4ccc(Cl)cc4Cl)c32)cc1` [Cpd 93, (7E)-1-(2,4-dichloro-phenyl)-7-(4-methoxy-benzylidene)-4,5,6,7-tetrahydro-1H-pyrazolo[4,3-c]pyridine-3-carboxylic acid [(1R)-1-pyridin-2-yl-ethyl]-amide] displayed an IC50 on Cannabinoid CB1 Receptor of 30 nM. Also, at Cannabinoid CB2 Receptor, the inhibition at 0.2 µM came out at 7%. For the same molecule, the 50% effective concentration (EC50) at CB1 receptor (human) was 8 nM.

`CCOC(=O)CN1C/C(=C\c2ccc(OC)cc2)c2c(c(C(=O)N[C@H](C)c3ccccc3)nn2-c2ccc(Cl)cc2Cl)C1` [Cpd 48, (7E)-[1-(2,4-dichloro-phenyl)-7-(4-methoxy-benzylidene)-3-[(1R)-1-phenyl-ethylcarbamoyl]-1,4,6,7-tetrahydro-pyrazolo[4,3-c]pyridin-5-yl]-acetic acid ethyl ester] displayed an IC50 on Cannabinoid CB1 Receptor of 4 nM. On Cannabinoid CB2 Receptor, the inhibition at 0.2 µM was 38%. The molecule also came in with an EC50 on CB1 receptor (human) of 0.2 nM.

For `Cc1ccc(S(=O)(=O)N2CCc3c(c(C(=O)NC4C5(C)CCC(C5)C4(C)C)nn3Cc3ccccc3)C2)cc1` (stereo not drawn) [Cpd 125, 1-benzyl-5-(toluene-4-sulfonyl)-4,5,6,7-tetrahydro-1H-pyrazolo[4,3-c]pyridine-3-carboxylic acid (1,3,3-trimethyl-bicyclo[2.2.1]hept-2-yl)-amide], the IC50 is 200 nM on Cannabinoid CB1 Receptor (human CB1, SK-N-MC cell membranes, calculated by linear regression from percent inhibition at various concentrations, read-out: Cannabinoid CB1 Receptor Binding IC50) and 30 nM at Cannabinoid CB2 Receptor. The “CB1 Receptor Functional Activity (change in functional activity, CRE β-gal)” value at CB1 receptor (human) is listed as 27%.

`COc1ccc(/C=C2\CNCc3c(C(=O)N[C@H](C)c4ccccc4)nn(-c4ccc(Cl)cc4Cl)c32)cc1` [Cpd 38, (7E)-1-(2,4-dichloro-phenyl)-7-(4-methoxy-benzylidene)-4,5,6,7-tetrahydro-1H-pyrazolo[4,3-c]pyridine-3-carboxylic acid [(1R)-1-phenyl-ethyl]-amide]: the IC50 on Cannabinoid CB1 Receptor was determined as 10 nM. Besides, the inhibition at 0.2 µM on Cannabinoid CB2 Receptor is 25%. Also, it took 5 nM to reach a half-maximal effect at CB1 receptor (human) (EC50).

Molecule `C[C@@H](NC(=O)c1nn(-c2ccc(Cl)cc2Cl)c2c1CNC/C2=C\c1ccc(F)cc1)c1ccccc1` [Cpd 15, (7E)-1-(2,4-dichloro-phenyl)-7-(4-fluoro-benzylidene)-4,5,6,7-tetrahydro-1H-pyrazolo[4,3-c]pyridine-3-carboxylic acid [(1R)-1-phenyl-ethyl]-amide] came in with an IC50 on Cannabinoid CB1 Receptor of 10 nM. Also, the inhibition at 0.2 µM on Cannabinoid CB2 Receptor is 23%. This molecule gave an EC50 at CB1 receptor (human) of 10 nM.

On to `CC12CCC(C1)C(C)(C)[C@H]2NC(=O)c1nn(Cc2ccccc2)c2c1CNCC2` (stereo partly drawn) [Cpd 105, 1-benzyl-4,5,6,7-tetrahydro-1H-pyrazolo[4,3-c]pyridine-3-carboxylic acid [(2S)-1,3,3-trimethyl-bicyclo[2.2.1]hept-2-yl]-amide], for which the IC50 at Cannabinoid CB1 Receptor is 200 nM; on Cannabinoid CB2 Receptor it was 500 nM. Also, the “CB1 Receptor Functional Activity (change in functional activity, CRE β-gal)” value on CB1 receptor (human) is reported as −18%.

On to `CCOC(=O)CN1C/C(=C\c2ccc(F)cc2)c2c(c(C(=O)N[C@H](C)c3ccccc3)nn2-c2ccc(Cl)cc2)C1` [Cpd 72, (7E)-[1-(4-chloro-phenyl)-7-(4-fluoro-benzylidene)-3-[(1R)-1-phenyl-ethylcarbamoyl]-1,4,6,7-tetrahydro-pyrazolo[4,3-c]pyridin-5-yl]-acetic acid ethyl ester], for which the IC50 on Cannabinoid CB1 Receptor worked out at 10 nM. For the same molecule, at Cannabinoid CB2 Receptor, the inhibition at 0.2 µM amounted to 17%. Moreover, the response at CB1 receptor (human) was half-maximal at 5 nM (EC50).

Source of the values: patent US20060089378A1 (priority 2004, published 2006).
